Assays:
[1] = molecular target: T1, Human A3R (Homo sapiens, UniProt P0DMS8); assay: Radioligand binding at human A3 adenosine receptor ([125I]I-AB-MECA, CHO cell membranes); conditions: n = 1; read-out: Affinity (nM) at Human A3R
T1 construct: expressed in transfected cells
T1 sequence (P0DMS8 1-318): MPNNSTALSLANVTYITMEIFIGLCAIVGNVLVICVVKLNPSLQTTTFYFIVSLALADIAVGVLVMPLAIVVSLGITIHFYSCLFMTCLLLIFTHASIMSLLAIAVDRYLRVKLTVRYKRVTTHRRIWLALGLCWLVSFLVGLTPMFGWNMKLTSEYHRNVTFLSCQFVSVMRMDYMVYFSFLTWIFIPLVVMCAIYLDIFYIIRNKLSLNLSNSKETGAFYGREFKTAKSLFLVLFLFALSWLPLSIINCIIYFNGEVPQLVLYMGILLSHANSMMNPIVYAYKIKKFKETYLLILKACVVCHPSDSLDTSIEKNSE
Procedure: [3H]R—N^6-Phenylisopropyladenosine ([3H]R-PIA, 63 Ci/mmol), [^3H](2-[p-(2-carboxyethyl)phenyl-ethylamino]-5′-N-ethylcarboxamido-adenosine) ([^3H]CGS21680, 40.5 Ci/mmol) and [^125I]N^6-(4-amino-3-iodobenzyl)adenosine-5′-N-methyluronamide ([^125I]I-AB-MECA, 2200 Ci/mmol) were purchased from Perkin-Elmer Life and Analytical Science (Boston, MA). Test compounds were prepared as 5 mM stock solutions in DMSO and stored frozen.
Cell Culture and Membrane Preparation—CHO cells stably expressing the recombinant hA1 and hA3ARs and HEK293 cells stably expressing the hA2AAR were cultured in Dulbecco's modified Eagle medium (DMEM) and F12 (1:1) supplemented with 10% fetal bovine serum, 100 units/mL penicillin, 100 μg/mL streptomycin, and 2 μmol/mL glutamine. In addition, 800 μg/mL geneticin was added to the A2A media, while 500 μg/mL hygromycin was added to the A1 and A3 media. After harvesting, cells were homogenized and suspended in PBS. Cells were then centrifuged at 240 g for 5 min, and the pellet was resuspended in 50 mM Tris-HCl buffer (pH 7.5) containing 10 mM MgCl2. The suspension was homogenized and was then ultra-centrifuged at 14,330 g for 30 min at 4° C. The resultant pellets were resuspended in Tris buffer, incubated with adenosine deaminase (3 units/mL) for 30 min at 37° C. The suspension was homogenized with an electric homogenizer for 10 sec, pipetted into 1 mL vials and then stored at −80° C. until the binding experiments. The protein concentration was measured using the BCA Protein Assay Kit from Pierce Biotechnology, Inc. (Rockford, IL).
Binding assays: Into each tube in the binding assay was added 50 μL of increasing concentrations of the test ligand in Tris-HCl buffer (50 mM, pH 7.5) containing 10 mM MgCl2, 50 μL of the appropriate agonist radioligand, and finally 100 μL of membrane suspension. For the A1AR (22 μg of protein/tube) the radioligand used was [^3H]R-PIA (final concentration of 3.5 nM). For the A2AAR (20 μg/tube) the radioligand used was [^3H]CGS21680 (10 nM). For the A3AR ([…]) the radioligand used was [^125I]I-AB-MECA (0.34 nM). Nonspecific binding was determined using a final concentration of 10 μM NECA diluted with the buffer. The mixtures were incubated at 25° C. for 60 min in a shaking water bath. Binding reactions were terminated by filtration through Brandel GF/B filters under a reduced pressure using a M-24 cell harvester (Brandel, Gaithersburg, MD). Filters were washed three times with 3 mL of 50 mM ice-cold Tris-HCl buffer (pH 7.5). Filters for A1 and A2AAR binding were placed in scintillation vials containing 5 mL of Hydrofluor scintillation buffer and counted using a Perkin Elmer Liquid Scintillation Analyzer (Tri-Carb 2810TR). Filters for A3AR binding were counted using a Packard Cobra II T-counter. The Ki values were determined using GraphPad Prism for all assays.
A3R binding of selected compounds. Using methods described herein, the affinity of selected compounds at the A3 receptor was measured.

[2] = Plasma protein binding (free fraction); format: in vitro ADME, mouse
Source text: (§1) Example 3 of U.S. Pat. No. 9,789,131, which is incorporated herein by reference, describes assays for determining the plasma and brain free fraction of certain compounds such as I-1. Compounds described herein may be evaluated using such assays or similar variants thereof.

[3] = Nonspecific brain tissue binding (free fraction); format: in vitro ADME, mouse; conditions: brain tissue
Source text: as §1

[4] = tested on: photothrombosis-induced stroke in mice; assay: Mouse photothrombotic stroke model; format: in vivo; conditions: mouse, stroke
Procedure: Photothrombosis-induced Stroke: Photothrombosis is performed as described in Zheng et al 2010 (PloS One 5 (12): e14401). In brief, Rose Bengal is a fluorescent dye that when injected into the vasculature and excited, generates singlet oxygen that damages the endothelial wall and induces a local thrombosis (clot). Using this technique, mice are given a 0.1 mL tail-vein injection of sterilized Rose Bengal (RB, Sigma, U.S.A.) in artificial cerebral spinal fluid (aCSF). The RB concentration is 20 mg/mL. A cortical region is centered in the imaging field and illuminated with a green laser (543 nm, 5 mW) using a 0.8-NA 40× water-immersion objective (Nikon, Tokyo). The clot formation is monitored in real time until the targeted vessel or downstream capillaries are firmly occluded. Stable clots are subsequently identified by a non-fluorescent vessel segmentation ending with highly fluorescent regions. […] Treatments, at doses such as 0.5 μmol/kg are introduced via intraperitoneal injections (i.p.). For experiments with A3 receptor antagonist MRS1523, mice are administered intraperitoneal injections (2 mg/kg) at the 0 and 2 hour timepoints to ensure receptor antagonism throughout the course of the study.
Animals and Photothrombosis-induced Stroke: Stroke is performed as described in Zheng et al 2010 (PloS One 5 (12): e14401). Female C57Bl/6 mice (4-6 months) are used in this study. From the methods of this manuscript: Mice are anesthetized at 3% isoflurane with 100% oxygen and subsequently maintained at 1% isoflurane through a nosecone. Depth of anesthesia is monitored and regulated according to vital signs, pinch withdrawal and eye blinks. Body temperature is maintained at 37° C. by a feedback-controlled heating pad (Gaymar T/Pump). Vital signs including oxygen saturation, respiratory rate, and heart rate are continuously monitored by using the MouseOx system (STARR Life Sciences). […]
Post photothrombotic infarction evaluation. The size of cerebral infarcts is evaluated using 2,3,5-Triphenyltetrazolium chloride (TTC) staining as described in Zheng et al 2010 (PloS One 5 (12): e14401). […]

[5] = tested on: traumatic brain injury (TBI) in mice; assay: Mouse traumatic brain injury (TBI) model; format: in vivo
Procedure: Animals and traumatic brain injury (TBI): TBI is performed with a controlled closed skull injury model as described in Talley-Watts et al. 2012 (J. Neurotrauma 30, 55-66). Following the method described therein, a pneumatic impact device is used to generate a moderate TBI leaving the skull and dura matter intact. To achieve this, C57BL/6 mice are anesthetized with isoflurane (3% induction, 1% maintenance) in 100% oxygen. A body temperature of 37° C. is maintained using a temperature-controlled heated surgical table. A small midline incision is made on the scalp using aseptic surgical techniques. A 5 mm stainless steel disc is positioned on the skull and fixed using superglue on the right parietal bone between bregma and lamda over the somatosensory cortex. The mouse is then positioned on a stage directly under the pneumatic impact tip. […] Mice are placed in a Thermo-Intensive Care Unit (Braintree Scientific model FV-1; 37° C.; 27% O2) and monitored until fully awake and moving freely. […]
Western Blot Analysis for GFAP: At selected survival times, mice are anesthetized under isoflurane and sacrificed. […] The homogenate is transferred to a 2 mL tube and centrifuged at 1000 g for 10 minutes at 4° C. and the supernatant is collected and analyzed. Protein concentration is determined by the BCA assay using a 1:50 dilution. […]

[6] = molecular target: P2Y1R (Homo sapiens, UniProt P47900); conditions: reference 6; cited from earlier work
Chain of P2Y1R (P47900 whole entry): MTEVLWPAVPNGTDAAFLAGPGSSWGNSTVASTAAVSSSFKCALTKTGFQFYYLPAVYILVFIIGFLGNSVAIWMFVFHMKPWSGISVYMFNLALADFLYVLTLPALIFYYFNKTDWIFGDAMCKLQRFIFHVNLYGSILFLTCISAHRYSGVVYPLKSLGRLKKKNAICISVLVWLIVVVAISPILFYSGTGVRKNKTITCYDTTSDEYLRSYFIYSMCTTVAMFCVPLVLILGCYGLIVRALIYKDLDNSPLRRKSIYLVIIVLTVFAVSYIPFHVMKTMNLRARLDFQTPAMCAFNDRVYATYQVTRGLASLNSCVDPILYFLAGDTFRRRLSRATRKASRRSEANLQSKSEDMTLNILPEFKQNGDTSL

[7] = molecular target: T2, A3AR (Homo sapiens, UniProt P0DMS8); conditions: reference 5; cited from earlier work
T2 sequence (P0DMS8 1-318): T1 sequence (P0DMS8 1-318)

CCSc1nc(N)c2ncn([C@H]3[C@H](O)[C@H](O)[C@]4(CO)C[C@H]34)c2n1 [Compound I-2, (1R,2R,3S,4R,5S)-4-(6-Amino-2-(ethylthio)-9H-purin-9-yl)-1-(hydroxymethyl)bicyclo[3.1.0]hexane-2,3-diol]
Ki [1]: 909 nM

CNC(=O)[C@H]1O[C@@H](n2cnc3c(NCc4cccc(I)c4)nc(Cl)nc32)[C@H](O)[C@@H]1O [Cl-IB-MECA, reference compound]
free (unbound) fraction in plasma [2]: 0.002 | free (unbound) fraction in brain [3]: 0.002 | efficacy in mouse photothrombotic stroke model [4]: inactive | efficacy in mouse TBI model [5]: weakly active

Nc1nc(SCCc2ccccc2)nc2c1ncn2[C@H]1[C@H](O)[C@H](O)[C@]2(CO)C[C@H]12 [Compound I-6, (1R,2R,3S,4R,5S)-4-(6-Amino-2-(phenethylthio)-9H-purin-9-yl)-1-(hydroxymethyl)bicyclo[3.1.0]hexane-2,3-diol]
Ki [1]: 379 nM

CCCCCCSc1nc(N)c2ncn([C@H]3[C@H](O)[C@H](O)[C@]4(CO)C[C@H]34)c2n1 [Compound I-3, (1R,2R,3S,4R,5S)-4-(6-Amino-2-(hexylthio)-9H-purin-9-yl)-1-(hydroxymethyl)bicyclo[3.1.0]hexane-2,3-diol]
Ki [1]: 504 nM

Nc1nc(SCc2ccccc2)nc2c1ncn2[C@H]1[C@H](O)[C@H](O)[C@]2(CO)C[C@H]12 [Compound I-5, (1R,2R,3S,4R,5S)-4-(6-Amino-2-(benzylthio)-9H-purin-9-yl)-1-(hydroxymethyl)bicyclo[3.1.0]hexane-2,3-diol]
Ki [1]: 55 nM

COc1nc(N)c2ncn([C@H]3[C@H](O)[C@H](O)[C@]4(CO)C[C@H]34)c2n1 [Compound I-7, (1R,2R,3S,4R,5S)-4-(6-Amino-2-methoxy-9H-purin-9-yl)-1-(hydroxymethyl)bicyclo[3.1.0]hexane-2,3-diol]
Ki [1]: 1050 nM

CSc1nc(N)c2ncn([C@H]3C(O)[C@@H](O)[C@]4(COP(=O)(O)OP(=O)(O)O)C[C@H]34)c2n1 (stereo partly drawn) [MRS2365]
Ki [6]: 0.4 nM

CNC(=O)[C@@]12C[C@@H]1[C@@H](n1cnc3c(NCc4cccc(Cl)c4)nc(SC)nc31)C(O)[C@H]2O (stereo partly drawn) [MRS3611]
Ki [7]: 1.5 nM

Nc1nc(SC2CCCCC2)nc2c1ncn2[C@H]1[C@H](O)[C@H](O)[C@]2(CO)C[C@H]12 [Compound I-4, (1R,2R,3S,4R,5S)-4-(6-Amino-2-(cyclohexylthio)-9H-purin-9-yl)-1-(hydroxymethyl)bicyclo[3.1.0]hexane-2,3-diol]
Ki [1]: 1170 nM

Reference: patent publication US20240368164A1, “PURINE NUCLEOSIDES, THEIR INTERMEDIATES, AND METHODS OF PREPARATION THEREOF” (Astrocyle Pharmaceuticals, Inc., priority 2021, published 2024)
